Measurements reported in ChEMBL document CHEMBL1201862, “PubChem BioAssay data set” (2004).
Activity calls are given as the source filed them.

Assays:
[1] = molecular target: T1, DNA repair protein RAD52 homolog (Homo sapiens, UniProt P43351); type: functional, biochemical
T1 sequence (P43351 whole entry): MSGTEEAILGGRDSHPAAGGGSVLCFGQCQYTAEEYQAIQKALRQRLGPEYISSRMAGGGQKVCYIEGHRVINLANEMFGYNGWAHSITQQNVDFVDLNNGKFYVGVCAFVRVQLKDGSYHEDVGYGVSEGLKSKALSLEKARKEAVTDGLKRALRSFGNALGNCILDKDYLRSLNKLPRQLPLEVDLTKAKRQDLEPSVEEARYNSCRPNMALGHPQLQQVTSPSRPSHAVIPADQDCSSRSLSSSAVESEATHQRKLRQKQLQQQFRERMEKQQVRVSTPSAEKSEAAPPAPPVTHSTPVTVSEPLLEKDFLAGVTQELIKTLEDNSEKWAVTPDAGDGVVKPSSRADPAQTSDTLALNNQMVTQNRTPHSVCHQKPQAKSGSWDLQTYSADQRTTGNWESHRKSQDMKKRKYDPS

[2] = molecular target: T2, Sentrin-specific protease 1 (Homo sapiens, UniProt Q9P0U3); assay: Dose response confirmation of small molecule inhibitors of the catalytic domain of the SUMO protease, SENP1 in a FRET assay.; type: functional; details: read-out: IC50_Mean
T2 sequence (Q9P0U3 whole entry): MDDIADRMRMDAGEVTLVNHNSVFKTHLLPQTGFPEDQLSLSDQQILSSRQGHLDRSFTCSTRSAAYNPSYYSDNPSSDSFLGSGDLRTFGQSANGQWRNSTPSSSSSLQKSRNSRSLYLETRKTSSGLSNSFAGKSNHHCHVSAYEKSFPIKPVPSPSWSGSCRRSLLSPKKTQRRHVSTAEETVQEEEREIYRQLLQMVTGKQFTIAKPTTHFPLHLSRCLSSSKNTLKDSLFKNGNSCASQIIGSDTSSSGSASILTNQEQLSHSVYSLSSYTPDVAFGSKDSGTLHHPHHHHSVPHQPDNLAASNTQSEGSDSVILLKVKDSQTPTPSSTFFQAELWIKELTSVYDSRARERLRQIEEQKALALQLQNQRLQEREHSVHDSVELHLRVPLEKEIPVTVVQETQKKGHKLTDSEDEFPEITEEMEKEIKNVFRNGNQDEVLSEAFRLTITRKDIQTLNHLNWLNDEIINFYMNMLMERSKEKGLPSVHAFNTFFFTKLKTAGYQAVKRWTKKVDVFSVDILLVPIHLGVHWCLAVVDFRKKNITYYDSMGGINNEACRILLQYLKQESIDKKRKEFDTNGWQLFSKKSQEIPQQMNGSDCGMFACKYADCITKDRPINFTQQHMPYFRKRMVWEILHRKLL

[3] = molecular target: SWI/SNF-related matrix-associated actin-dependent regulator of chromatin subfamily A member 2 (Homo sapiens, UniProt P51531); assay: Luminescence-based cell-based high throughput dose response assay to identify activators of the function of SWI/SNF related, matrix associated, actin dependent regulator of chromatin, subfamily a, member 2 (SMARCA2, BRM).; type: functional
SWI/SNF-related matrix-associated actin-dependent regulator of chromatin subfamily A member 2, sequence (P51531 whole entry): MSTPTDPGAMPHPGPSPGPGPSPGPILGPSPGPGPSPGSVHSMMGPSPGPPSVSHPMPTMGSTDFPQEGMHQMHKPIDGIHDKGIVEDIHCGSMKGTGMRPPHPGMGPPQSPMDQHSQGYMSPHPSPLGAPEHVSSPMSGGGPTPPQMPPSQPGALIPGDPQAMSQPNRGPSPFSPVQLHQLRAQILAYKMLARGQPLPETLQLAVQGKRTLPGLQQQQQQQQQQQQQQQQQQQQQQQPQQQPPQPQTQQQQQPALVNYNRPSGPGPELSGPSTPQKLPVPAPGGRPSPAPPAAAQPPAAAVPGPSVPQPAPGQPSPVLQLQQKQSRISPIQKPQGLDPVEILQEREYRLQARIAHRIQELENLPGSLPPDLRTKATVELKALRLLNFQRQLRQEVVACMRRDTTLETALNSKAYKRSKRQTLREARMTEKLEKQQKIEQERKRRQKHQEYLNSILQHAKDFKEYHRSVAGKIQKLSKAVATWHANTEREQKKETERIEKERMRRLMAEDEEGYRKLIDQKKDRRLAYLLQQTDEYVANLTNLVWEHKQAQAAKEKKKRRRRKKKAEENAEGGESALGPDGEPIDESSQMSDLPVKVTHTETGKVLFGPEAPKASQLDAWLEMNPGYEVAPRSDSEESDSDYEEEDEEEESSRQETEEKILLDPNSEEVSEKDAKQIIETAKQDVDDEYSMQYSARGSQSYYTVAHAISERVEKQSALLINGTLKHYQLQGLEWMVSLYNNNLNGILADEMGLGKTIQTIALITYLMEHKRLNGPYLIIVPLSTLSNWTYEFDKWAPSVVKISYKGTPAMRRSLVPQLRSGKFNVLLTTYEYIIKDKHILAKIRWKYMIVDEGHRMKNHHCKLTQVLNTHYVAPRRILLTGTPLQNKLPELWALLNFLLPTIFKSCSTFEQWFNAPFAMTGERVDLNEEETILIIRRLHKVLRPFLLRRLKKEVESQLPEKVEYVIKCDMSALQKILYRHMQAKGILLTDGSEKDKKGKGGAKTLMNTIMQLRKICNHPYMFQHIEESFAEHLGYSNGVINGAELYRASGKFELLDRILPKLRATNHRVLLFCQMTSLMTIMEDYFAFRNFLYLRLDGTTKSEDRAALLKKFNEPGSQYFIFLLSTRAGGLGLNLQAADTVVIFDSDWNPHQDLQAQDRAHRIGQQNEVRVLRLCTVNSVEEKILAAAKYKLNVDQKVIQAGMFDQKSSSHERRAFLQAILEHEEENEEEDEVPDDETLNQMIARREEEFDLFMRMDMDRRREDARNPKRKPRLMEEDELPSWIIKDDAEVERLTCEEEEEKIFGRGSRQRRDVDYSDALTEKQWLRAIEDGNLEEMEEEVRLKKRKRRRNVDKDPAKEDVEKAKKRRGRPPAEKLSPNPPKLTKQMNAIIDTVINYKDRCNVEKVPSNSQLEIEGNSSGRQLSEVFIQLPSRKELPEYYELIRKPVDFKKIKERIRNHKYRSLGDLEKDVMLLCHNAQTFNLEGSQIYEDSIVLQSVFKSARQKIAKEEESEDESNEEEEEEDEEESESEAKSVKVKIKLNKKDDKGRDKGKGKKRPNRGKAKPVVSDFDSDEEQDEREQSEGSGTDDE

[4] = Counterscreen for activators of the function of SWI/SNF related, matrix associated, actin dependent regulator of chromatin, subfamily a, member 2 (SMARCA2, BRM): Luminescence-based cell-based high throughput dose response assay to identify non-selective compounds using the VP16 reporter assay.; type: functional
[5] = molecular target: T2, Sentrin-specific protease 1; assay: potency of human SENP1 inhibitors, dose response, biochemical, kinetic FRET (AID 651697); type: functional; details: read-out: IC50_Mean
Vero = assay: cells; type: functional, Chlorocebus sabaeus; details: Chlorocebus sabaeus, Vero
[6] = DNA binding of candidate compounds, dose response, artefact control for RAD54 inhibitor project, biochemical, fluorescence polarization, cherry-pick (AID 651673); type: functional
[7] = molecular target: T3, DNA repair and recombination protein RAD54-like (Homo sapiens, UniProt Q92698); assay: inhibitors of human RAD54 branch migration, confirmation, biochemical, fluorescence, cherry-picked samples, dose series (AID 651657); type: functional
T3 sequence (Q92698 whole entry): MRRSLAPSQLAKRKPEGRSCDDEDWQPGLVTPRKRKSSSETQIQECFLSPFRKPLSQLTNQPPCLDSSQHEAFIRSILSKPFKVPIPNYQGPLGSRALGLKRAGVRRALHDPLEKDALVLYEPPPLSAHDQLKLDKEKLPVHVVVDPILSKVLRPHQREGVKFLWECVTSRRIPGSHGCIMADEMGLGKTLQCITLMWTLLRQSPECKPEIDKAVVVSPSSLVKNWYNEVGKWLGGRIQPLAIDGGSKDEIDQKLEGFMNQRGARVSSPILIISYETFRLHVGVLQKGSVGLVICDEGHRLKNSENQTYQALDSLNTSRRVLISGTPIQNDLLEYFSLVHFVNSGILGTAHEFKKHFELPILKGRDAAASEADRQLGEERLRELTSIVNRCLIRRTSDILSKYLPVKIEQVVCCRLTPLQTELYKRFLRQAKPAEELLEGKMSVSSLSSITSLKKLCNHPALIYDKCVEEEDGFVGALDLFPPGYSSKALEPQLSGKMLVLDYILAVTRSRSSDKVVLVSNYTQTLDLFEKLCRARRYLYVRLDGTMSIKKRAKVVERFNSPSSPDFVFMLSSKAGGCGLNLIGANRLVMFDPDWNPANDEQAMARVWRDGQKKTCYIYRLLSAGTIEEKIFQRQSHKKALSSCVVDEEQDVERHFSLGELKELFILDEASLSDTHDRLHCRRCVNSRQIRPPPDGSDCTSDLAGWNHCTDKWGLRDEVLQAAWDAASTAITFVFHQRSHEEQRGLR

[8] = molecular target: Eukaryotic translation initiation factor 4E (Mus musculus, UniProt P63073); assay: eIF4E–eIF4G protein interaction inhibitors, dose response, biochemical, TR-FRET (AID 855); type: functional;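 further: potency for disrupting eIF4E binding to eIF4GI seen as loss of FRET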
Eukaryotic translation initiation factor 4E, sequence (P63073 whole entry): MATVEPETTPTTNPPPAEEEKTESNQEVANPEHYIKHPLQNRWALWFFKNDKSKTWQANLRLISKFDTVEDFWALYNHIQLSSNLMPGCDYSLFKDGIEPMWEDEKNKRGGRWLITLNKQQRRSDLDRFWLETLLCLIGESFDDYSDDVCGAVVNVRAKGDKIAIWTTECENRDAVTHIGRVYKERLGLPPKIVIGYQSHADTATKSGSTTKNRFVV

Insulin-degrading enzyme [9] = molecular target: T4, Insulin-degrading enzyme (Homo sapiens, UniProt P14735); assay: activators of endogenous IDE in HEK cells, dose response, cell-based, fluorescence polarization (AID 588439); type: functional
T4 sequence (P14735 whole entry): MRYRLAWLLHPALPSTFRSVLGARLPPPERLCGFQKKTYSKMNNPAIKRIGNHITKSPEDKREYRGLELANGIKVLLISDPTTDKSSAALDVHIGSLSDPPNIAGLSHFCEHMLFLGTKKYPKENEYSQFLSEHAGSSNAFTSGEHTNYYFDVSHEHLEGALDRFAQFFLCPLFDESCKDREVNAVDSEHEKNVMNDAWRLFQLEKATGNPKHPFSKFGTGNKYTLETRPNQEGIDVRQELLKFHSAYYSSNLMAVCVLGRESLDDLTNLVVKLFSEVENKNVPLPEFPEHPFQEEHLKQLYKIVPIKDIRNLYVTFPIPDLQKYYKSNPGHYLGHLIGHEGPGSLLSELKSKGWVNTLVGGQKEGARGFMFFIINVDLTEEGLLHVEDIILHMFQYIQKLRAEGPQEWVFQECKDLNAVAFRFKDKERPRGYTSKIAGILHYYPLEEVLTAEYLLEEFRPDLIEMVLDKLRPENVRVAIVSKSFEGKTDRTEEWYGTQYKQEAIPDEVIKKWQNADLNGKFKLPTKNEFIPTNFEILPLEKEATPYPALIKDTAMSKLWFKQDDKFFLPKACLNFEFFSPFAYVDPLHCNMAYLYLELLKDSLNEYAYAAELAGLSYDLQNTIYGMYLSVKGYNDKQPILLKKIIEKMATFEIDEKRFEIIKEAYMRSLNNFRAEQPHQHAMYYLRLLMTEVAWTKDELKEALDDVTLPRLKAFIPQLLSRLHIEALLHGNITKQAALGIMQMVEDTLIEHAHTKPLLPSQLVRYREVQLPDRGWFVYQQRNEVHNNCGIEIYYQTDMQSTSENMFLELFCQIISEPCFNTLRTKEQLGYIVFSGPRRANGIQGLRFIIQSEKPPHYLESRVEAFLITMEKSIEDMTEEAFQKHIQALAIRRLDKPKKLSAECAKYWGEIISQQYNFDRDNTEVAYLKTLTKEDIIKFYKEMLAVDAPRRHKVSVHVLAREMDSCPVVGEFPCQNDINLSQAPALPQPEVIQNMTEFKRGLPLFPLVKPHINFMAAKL

HeLa = assay: HeLa cell cytotoxicity, dose response, cytotoxicity control, 24 h, cherry-picked samples (AID 504726); type: functional, cell-based; details: Homo sapiens;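 further: potency for cytotoxicity as loss of luminescence signal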
[10] = molecular target: T5, Small ubiquitin-related modifier 1 (Homo sapiens, UniProt P63165); assay: inhibitors of SUMO1 peptide binding, dose response, biochemical, fluorescence polarization, uHTS hits (AID 624382); type: functional; details: read-out: IC50_Mean
T5 sequence (P63165 whole entry): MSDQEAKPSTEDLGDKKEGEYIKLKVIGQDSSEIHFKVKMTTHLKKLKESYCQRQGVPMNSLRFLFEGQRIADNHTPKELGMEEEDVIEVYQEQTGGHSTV

[11] = molecular target: T6, Small ubiquitin-related modifier 2 (Homo sapiens, UniProt P61956); assay: inhibitors of SUMO2 protein-protein interaction, dose response, selectivity assay for SUMO1 interaction inhibitor project, biochemical, FRET, human SUMO2, uHTS hits (AID 624384); type: functional; details: read-out: IC50_Mean
T6 sequence (P61956 whole entry): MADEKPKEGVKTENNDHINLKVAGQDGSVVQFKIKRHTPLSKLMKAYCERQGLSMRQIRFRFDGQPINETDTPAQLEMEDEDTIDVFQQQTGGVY

[12] = molecular target: T5, Small ubiquitin-related modifier 1; assay: inhibitors of SUMO1 partner interactions, dose response, biochemical, FRET (AID 624383); type: functional; details: read-out: IC50_Mean
[13] = molecular target: T6, Small ubiquitin-related modifier 2; assay: SUMO2–SIM peptide binding inhibitors, dose response, selectivity assay for SUMO1 interaction inhibitor project, biochemical, fluorescence polarization, uHTS hits (AID 624385); type: functional; details: read-out: IC50_Mean
Keap1/Nrf2 = Keap1/Nrf2 (Homo sapiens, UniProt Q14145); assay: Keap1-Nrf2 protein-protein interaction inhibitors, dose response, biochemical, fluorescence polarization, cherry-picked samples (AID 588683)
Keap1/Nrf2, sequence (Q16236 whole entry): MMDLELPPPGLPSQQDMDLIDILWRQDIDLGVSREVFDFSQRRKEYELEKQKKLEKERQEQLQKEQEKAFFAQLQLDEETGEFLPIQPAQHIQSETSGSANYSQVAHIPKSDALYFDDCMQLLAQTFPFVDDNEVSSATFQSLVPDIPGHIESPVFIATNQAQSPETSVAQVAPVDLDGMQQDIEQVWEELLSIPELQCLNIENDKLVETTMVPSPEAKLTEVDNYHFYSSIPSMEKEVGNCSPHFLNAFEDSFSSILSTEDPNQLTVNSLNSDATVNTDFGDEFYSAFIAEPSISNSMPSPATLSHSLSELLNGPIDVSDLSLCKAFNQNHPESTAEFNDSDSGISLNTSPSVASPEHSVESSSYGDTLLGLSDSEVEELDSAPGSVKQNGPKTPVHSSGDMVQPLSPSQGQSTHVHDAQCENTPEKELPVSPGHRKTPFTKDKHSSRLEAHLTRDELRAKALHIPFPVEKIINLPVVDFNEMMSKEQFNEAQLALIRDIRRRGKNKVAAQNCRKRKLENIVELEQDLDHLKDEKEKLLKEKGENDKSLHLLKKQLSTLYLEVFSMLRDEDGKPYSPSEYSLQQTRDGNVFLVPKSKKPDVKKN
Keap1/Nrf2, sequence (Q14145 whole entry): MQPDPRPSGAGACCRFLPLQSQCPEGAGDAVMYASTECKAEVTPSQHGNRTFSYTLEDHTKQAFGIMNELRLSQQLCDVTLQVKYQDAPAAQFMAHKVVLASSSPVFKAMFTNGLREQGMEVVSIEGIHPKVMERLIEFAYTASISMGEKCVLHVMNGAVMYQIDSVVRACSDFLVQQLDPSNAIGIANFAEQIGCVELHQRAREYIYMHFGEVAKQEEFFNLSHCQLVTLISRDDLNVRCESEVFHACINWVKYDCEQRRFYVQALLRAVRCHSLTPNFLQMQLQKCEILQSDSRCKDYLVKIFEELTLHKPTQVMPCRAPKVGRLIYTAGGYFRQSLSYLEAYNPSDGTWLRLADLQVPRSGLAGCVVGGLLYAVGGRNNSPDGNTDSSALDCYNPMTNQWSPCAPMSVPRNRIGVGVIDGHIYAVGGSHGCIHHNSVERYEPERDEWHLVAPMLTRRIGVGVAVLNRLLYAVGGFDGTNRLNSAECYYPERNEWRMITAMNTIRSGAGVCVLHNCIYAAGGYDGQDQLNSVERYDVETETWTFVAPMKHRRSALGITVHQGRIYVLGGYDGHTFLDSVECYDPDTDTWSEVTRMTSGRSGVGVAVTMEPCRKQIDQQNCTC

Caspase-6 = molecular target: T7, Caspase-6 (Homo sapiens, UniProt P55212); assay: human caspase-6 inhibitors, dose response, biochemical, VEID-R110 fluorescence, cherry-pick (AID 720632)
T7 sequence (P55212 whole entry): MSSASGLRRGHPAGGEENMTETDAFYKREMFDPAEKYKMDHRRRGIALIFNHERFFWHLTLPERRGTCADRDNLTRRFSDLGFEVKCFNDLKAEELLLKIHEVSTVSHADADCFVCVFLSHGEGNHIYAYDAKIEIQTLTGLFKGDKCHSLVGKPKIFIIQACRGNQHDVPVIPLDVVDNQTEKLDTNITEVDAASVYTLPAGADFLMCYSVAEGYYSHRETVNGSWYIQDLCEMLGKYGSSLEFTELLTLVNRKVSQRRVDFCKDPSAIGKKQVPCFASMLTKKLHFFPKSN

HEK293 [14] = assay: HEK cell cytotoxicity by LDH release, dose response, cytotoxicity control for IDE activator project, fluorescence, HEK cells (AID 588440); type: functional, cell-based; details: Homo sapiens;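 further: cytotoxicity by LDH release measuring loss of membrane integrity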
ORF 73 = molecular target: T8, ORF 73 (Human herpesvirus 8, UniProt O40947); assay: inhibitors of C-LANA binding to LBS DNA, dose response, biochemical, fluorescence polarization, cherry-picked samples (AID 504725); parameters: species or system Human gammaherpesvirus 8;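 further: fluorescence polarization of a labeled DNA duplex reporting LANA DNA binding; potency is for inhibitors that block LANA binding to the DNA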
T8 sequence (O40947 whole entry): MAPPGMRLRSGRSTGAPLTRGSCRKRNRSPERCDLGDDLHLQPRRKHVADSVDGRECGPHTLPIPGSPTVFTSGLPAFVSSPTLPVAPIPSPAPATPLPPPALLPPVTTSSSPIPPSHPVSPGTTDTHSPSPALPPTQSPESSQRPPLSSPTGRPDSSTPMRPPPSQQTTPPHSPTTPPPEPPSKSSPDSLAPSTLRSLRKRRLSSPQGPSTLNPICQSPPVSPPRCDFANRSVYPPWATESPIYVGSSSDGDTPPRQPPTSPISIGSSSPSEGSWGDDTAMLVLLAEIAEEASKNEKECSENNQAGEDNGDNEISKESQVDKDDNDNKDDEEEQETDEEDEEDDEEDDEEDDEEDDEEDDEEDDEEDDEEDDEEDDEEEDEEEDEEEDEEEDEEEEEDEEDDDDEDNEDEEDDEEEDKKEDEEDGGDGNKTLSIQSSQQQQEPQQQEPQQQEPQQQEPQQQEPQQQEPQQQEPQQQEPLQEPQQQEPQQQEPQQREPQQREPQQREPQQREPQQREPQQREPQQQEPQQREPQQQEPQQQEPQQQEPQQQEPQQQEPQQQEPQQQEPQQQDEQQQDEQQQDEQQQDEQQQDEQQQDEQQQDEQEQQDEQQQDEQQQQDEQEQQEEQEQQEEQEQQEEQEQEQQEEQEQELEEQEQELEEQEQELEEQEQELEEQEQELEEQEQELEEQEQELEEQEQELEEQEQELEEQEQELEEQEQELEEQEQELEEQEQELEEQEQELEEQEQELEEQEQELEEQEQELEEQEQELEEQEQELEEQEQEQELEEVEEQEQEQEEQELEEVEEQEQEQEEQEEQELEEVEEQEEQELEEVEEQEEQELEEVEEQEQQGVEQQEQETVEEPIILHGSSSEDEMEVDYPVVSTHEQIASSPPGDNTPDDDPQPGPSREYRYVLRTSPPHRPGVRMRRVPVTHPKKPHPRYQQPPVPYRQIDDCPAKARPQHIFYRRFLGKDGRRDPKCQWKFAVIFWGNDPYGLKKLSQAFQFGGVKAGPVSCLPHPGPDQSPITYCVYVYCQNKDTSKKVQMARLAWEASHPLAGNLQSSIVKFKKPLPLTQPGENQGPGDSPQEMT

Insulin-degrading enzyme [15] = molecular target: T4, Insulin-degrading enzyme; assay: activators of recombinant IDE enzyme, dose response, counter-screen for IDE activator project, biochemical, fluorescence polarization (AID 588681)
HEK293 [16] = assay: optical interference in Abeta FP readout, dose response, artefact control for IDE activator project, biochemical, fluorescence polarization (AID 588442); type: functional, cell-based; details: Homo sapiens

With `CCN(CC)CCNc1ccc(CO)c2oc3cc(Cl)ccc3c(=O)c12` the AC50 [1] was 12.5 µM (active), the IC50 [2] was 24 µM (inactive) and the EC50 [3] was > 91.2 µM (inactive). The EC50 [4] was > 91.2 µM (inactive), the IC50 [5] was 19.8 µM (active) and the CC50 (Vero) was 16.7 µM (active). The AC50 [6] was 63.1 µM (active) and the AC50 [7] was 10.2 µM (active).

For `Cc1cc2nc3c(=O)[nH]c(=O)[nH]c3nc2c([N+](=O)[O-])c1N`, the IC50 [8] was 50 µM (inactive), the EC50 (Insulin-degrading enzyme [9]) was > 54.7 µM (inactive) and the AC50 (HeLa) was 150 µM (active). For the same molecule, the IC50 [10] was 2.33 µM (active), the IC50 [11] was > 66 µM (inactive) and the IC50 [12] was 51.7 µM (inactive). The IC50 [13] was 2.48 µM (active), the AC50 (Keap1/Nrf2) was 1.78 µM (active) and the AC50 (Caspase-6) was 4.58 µM (active). For the same molecule, the IC50 (HEK293 [14]) was > 89.3 µM (inactive), the AC50 (ORF 73) was 3.99 µM (active) and the EC50 (Insulin-degrading enzyme [15]) was > 54.7 µM (inactive). For the same molecule, the EC50 (HEK293 [16]) was 32.1 µM (inactive).
